Results published in patent US8420696B2, “Use of low-dose ladostigil for neuroprotection” (priority 2005, dated 2013).

Columns and labels:
microglia and astrocytes = test: Example 2: microglia and astrocyte activation at cannula penetration site after icv STZ; format: in vivo, Sprague-Dawley rats
Protocol: (§1) Male Sprague-Dawley rats (63) weighing 320-340 g, aged 4 months, were anesthetized by an intraperitoneal injection of Equithesin 0.3 ml/kg. STZ (0.5 mg) dissolved in 2 μl artificial cerebrospinal fluid (CSF) was injected into each lateral ventricle of 45 rats. The stereotaxic co-ordinates for icv injection were: 0.9 mm posterior, 1.8 mm lateral and 3.8 mm ventral from the bregma level. Control rats (18) received a bilateral injection of 2 μl artificial CSF. STZ-injected rats (25) were given ladostigil (1 mg/kg of the hemitartrate salt/day) orally in a volume of (1 ml/kg) from one week before, until 1 or 8 weeks after icv STZ. The remaining 20 rats received 1 ml/kg water. The rats were housed two per cage with free access to food and water until the behavioral, enzymatic and cytochemical measurements were completed.
One week after icv injection, 8 rats injected with icv CSF, 7 rats given STZ alone, and 7 treated with ladostigil were anesthetized with sodium pentobarbitone, perfused transcardially and the brains processed for immunocytochemistry. […]
Nitrotyrosine, (NT) a marker of nitrative/oxidative stress, was stained with rabbit anti-nitrotyrosine from Upstate (Lake Placid, N.Y., USA), diluted 1:100 followed by the secondary donkey anti-rabbit conjugated with horseradish peroxidase from Chemicon (Temecula, Calif., USA), was diluted 1:200. […] Images were obtained by bright field microscopy and quantitative assessments of appropriate markers were made using AnalySIS software. […]
Three distinct zones were distinguished in the vicinity of the cortical injection site after icv STZ injection containing astrocytes and microglia with differing morphology. Quantification of microglia and astrocytes in the three zones was made in sections sampled in a range of P0.2-0.8 mm from the bregma. The area of each zone containing the different types of astrocytes was measured and the percentage that each zone occupied in the wound area was calculated (Statistica software, StatSoft, USA). The classes of microglia were counted separately in each zone. […]

[1] = test system: rats injected icv with STZ (episodic memory); test: Object recognition test after icv STZ; format: in vivo, Sprague-Dawley rats; details: for Effect on the deficit in episodic memory: four weeks after icv STZ
Protocol: as §1, with “STZ-injected rats (25) were given ladostigil (1 mg/kg of the hemitartrate salt/day) orally in a volume of (1 ml/kg) from one week before, until 1 or 8 weeks after icv STZ.” left out
Episodic memory in the object recognition test was still intact 2 but not 4 weeks after a single icv STZ injection (Table 3). Therefore, rats that were treated with ladostigil or water were tested for object and place recognition 4 weeks after icv injection of STZ or CSF. The object recognition test measured non-spatial working memory with characteristics of episodic memory that is primarily affected in senile dementia (Bartolini et al., Aniracetam restores object recognition impaired by age, scopolamine, and nucleus basalis lesions, Pharmacol. Biochem. Behav. (1996) 53:277-83). The test depended on intact cortical and hippocampal function (Winters et al., Double dissociation between the effects of peri-postrhinal cortex and hippocampal lesions on tests of object recognition and spatial memory: heterogeneity of function within the temporal lobe, J. Neuroscience (2004) 24:5901-8), while place recognition, another manifestation of spatial memory, was dependent on intact hippocampal function. The experiments were carried out as previously described in Mumby et al., Hippocampal damage and exploratory preferences in rats: memory for objects, places, and contexts, Learning Memory (2002) 9:49-57, in a box made of dark Perspex (60×60 cm and 50 cm high), covered with a dark Perspex lid. In order to increase their interest in the objects, rats were familiarized with the test arena by placing them in it for 5 min on each of 3 successive days and the object recognition test performed on the 4th day. Two identical objects were placed in the arena and the time taken by the rats to explore each object during a period of 3 min was recorded. One hour later, the objects were replaced by one that was identical to the two used in the first test and a second one that was different from them and the time taken to explore each of them was again recorded. The following day, the place recognition test was carried out with two identical objects as described above but different from those used previously. One hour later, the one of the two objects was moved to another position in the arena as described in Mumby et al., supra.
Group means of 3 measures in the object and place recognition tests, duration of exploration in first and second phases and discrimination index were submitted to one way ANOVA. Mean daily escape latencies for trial 1 and trial 2 in the MWM in each group were analyzed by repeated measures ANOVA for DAY and GROUP followed by Duncan's post hoc test where appropriate. Histological data were analyzed by univariate ANOVA followed by Duncan's post hoc test. All values represent means±SEM.

SMILES: C#CCN[C@@H]1CCc2ccc(OC(=O)N(C)CC)cc21 [ladostigil, R(+)-6-(N-methyl,N-ethyl-carbamoyloxy)-N′-propargyl-1-aminoindan]
- Changes in microglia and astrocytes in zones i) and iii) resulting from icv STZ (microglia and astrocytes; 1 mg/kg/day hemitartrate orally, seven days after icv STZ): prevented the changes
- Density of fibrous microglia in zone ii) (microglia and astrocytes; 1 mg/kg/day orally, seven days after icv STZ): no effect
- Scar morphology at cannula penetration site (microglia and astrocytes; eight weeks after icv STZ, with or without ladostigil): No differences
- Deficit in episodic memory two days after dose ([1]; 17 mg/kg single dose, two days later when ChE was no longer inhibited): returned two days later
- Discrimination index, Object ([1]; STZ (4 weeks) + 17 mg/kg acute): 0.348 ± 0.112
- Discrimination index, Object ([1]; STZ (4 weeks) + 17 mg/kg acute, two days later): −0.112 ± 0.08
- Discrimination index, Object ([1]; STZ (4 weeks) + ladostigil 1 mg/kg acute): 0.010 ± 0.08
- Discrimination index, Object ([1]; STZ (4 weeks) + ladostigil 1 mg/kg chronic, mean ± s.e.m.): 0.238 ± 0.05
- Discrimination in object recognition test ([1]; icv STZ with chronic ladostigil, significantly >0, P<0.05): significant discrimination index
- Effect on the deficit in episodic memory ([1]; single dose 17 mg/kg): the memory deficit was abolished
- Effect on the deficit in episodic memory ([1]; single dose of 1 mg/kg): no effect
